According to PubChem BioAssay (NCI):
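Interpolation was linear, between the two tested concentrations surrounding the appropriate level; five concentrations were tested over 48 hours in 96-well plates. Here, GI50 denotes the concentration required for 50% inhibition of growth. TGI marks complete inhibition of growth.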

Columns and labels:
Experiment in all cases: NCI tumour cell line growth inhibition, 48 h
MDA-MB-231 breast = test system: MDA-MB-231 breast
SF-268 CNS = test system: SF-268 CNS
SW-620 colon = test system: SW-620 colon
SF-539 CNS = test system: SF-539 CNS
SNB-19 CNS = test system: SNB-19 CNS
MCF7 breast = test system: MCF7 breast
OVCAR-4 ovarian = test system: OVCAR-4 ovarian
MOLT-4 leukemia = test system: MOLT-4 leukemia
EKVX NSCLC = test system: EKVX NSCLC
OVCAR-3 ovarian = test system: OVCAR-3 ovarian
HOP-62 NSCLC = test system: HOP-62 NSCLC
CCRF-CEM leukemia = test system: CCRF-CEM leukemia
NCI-H522 lung = test system: NCI-H522 lung
BT-549 breast = test system: BT-549 breast
HCC-2998 colon = test system: HCC-2998 colon
DU-145 prostate = test system: DU-145 prostate
OVCAR-5 ovarian = test system: OVCAR-5 ovarian
A498 renal = test system: A498 renal
SK-OV-3 ovarian = test system: SK-OV-3 ovarian
NCI-H23 lung = test system: NCI-H23 lung
RPMI-8226 leukemia = test system: RPMI-8226 leukemia
SK-MEL-2 melanoma = test system: SK-MEL-2 melanoma
KM12 colon = test system: KM12 colon
COLO 205 colon = test system: COLO 205 colon
SF-295 CNS = test system: SF-295 CNS
U251 CNS = test system: U251 CNS
HCT-116 colon = test system: HCT-116 colon
MALME-3M melanoma = test system: MALME-3M melanoma
LOX IMVI melanoma = test system: LOX IMVI melanoma
HL-60(TB) leukemia = test system: HL-60(TB) leukemia
NCI-H460 lung = test system: NCI-H460 lung
T-47D breast = test system: T-47D breast
786-0 renal = test system: 786-0 renal
ACHN renal = test system: ACHN renal
SK-MEL-5 melanoma = test system: SK-MEL-5 melanoma
HS 578T breast = test system: HS 578T breast
SK-MEL-28 melanoma = test system: SK-MEL-28 melanoma
NCI-H226 lung = test system: NCI-H226 lung
MDA-MB-468 breast = test system: MDA-MB-468 breast
CAKI-1 renal = test system: CAKI-1 renal
A549 NSCLC = test system: A549 NSCLC
UACC-62 melanoma = test system: UACC-62 melanoma
RXF 393 renal = test system: RXF 393 renal
SR leukemia = test system: SR leukemia
K-562 leukemia = test system: K-562 leukemia
OVCAR-8 ovarian = test system: OVCAR-8 ovarian
SN12C renal = test system: SN12C renal
TK-10 renal = test system: TK-10 renal
UO-31 renal = test system: UO-31 renal
M14 melanoma = test system: M14 melanoma
HOP-92 NSCLC = test system: HOP-92 NSCLC
HT29 colon = test system: HT29 colon
SNB-75 CNS = test system: SNB-75 CNS
PC-3 prostate = test system: PC-3 prostate
IGROV1 ovarian = test system: IGROV1 ovarian
NCI/ADR-RES ovarian = test system: NCI/ADR-RES ovarian
HCT-15 colon = test system: HCT-15 colon
MDA-MB-435 = test system: MDA-MB-435

Structure (SMILES): Cc1ccc(Nc2nnc(-c3c[nH]c4ccccc34)o2)c(C)c1
- GI50 (MDA-MB-231 breast): 620 nM
- TGI (MDA-MB-231 breast): 15900 nM
- GI50 (SF-268 CNS): 714 nM
- TGI (SF-268 CNS): 30900 nM
- GI50 (SW-620 colon): 325 nM
- TGI (SW-620 colon): > 100000 nM
- GI50 (SF-539 CNS): 286 nM
- TGI (SF-539 CNS): 932 nM
- GI50 (SNB-19 CNS): 512 nM
- TGI (SNB-19 CNS): 43700 nM
- GI50 (MCF7 breast): 283 nM
- TGI (MCF7 breast): 13200 nM
- GI50 (OVCAR-4 ovarian): 14900 nM
- TGI (OVCAR-4 ovarian): > 100000 nM
- GI50 (MOLT-4 leukemia): 478 nM
- TGI (MOLT-4 leukemia): 46200 nM
- GI50 (EKVX NSCLC): 455 nM
- TGI (EKVX NSCLC): > 73100 nM
- GI50 (OVCAR-3 ovarian): 307 nM
- TGI (OVCAR-3 ovarian): 3530 nM
- GI50 (HOP-62 NSCLC): 475 nM
- TGI (HOP-62 NSCLC): 24300 nM
- GI50 (CCRF-CEM leukemia): 311 nM
- TGI (CCRF-CEM leukemia): > 35100 nM
- GI50 (NCI-H522 lung): 163 nM
- TGI (NCI-H522 lung): 1210 nM
- GI50 (BT-549 breast): 435 nM
- TGI (BT-549 breast): 19900 nM
- GI50 (HCC-2998 colon): 625 nM
- TGI (HCC-2998 colon): 4560 nM
- GI50 (DU-145 prostate): 664 nM
- TGI (DU-145 prostate): > 45300 nM
- GI50 (OVCAR-5 ovarian): 756 nM
- TGI (OVCAR-5 ovarian): 24200 nM
- GI50 (A498 renal): 18200 nM
- TGI (A498 renal): 56600 nM
- GI50 (SK-OV-3 ovarian): 502 nM
- TGI (SK-OV-3 ovarian): 23800 nM
- GI50 (NCI-H23 lung): 445 nM
- TGI (NCI-H23 lung): 12700 nM
- GI50 (RPMI-8226 leukemia): 424 nM
- TGI (RPMI-8226 leukemia): > 39100 nM
- GI50 (SK-MEL-2 melanoma): 302 nM
- TGI (SK-MEL-2 melanoma): 13300 nM
- GI50 (KM12 colon): 435 nM
- TGI (KM12 colon): 14500 nM
- GI50 (COLO 205 colon): 447 nM
- TGI (COLO 205 colon): 2950 nM
- GI50 (SF-295 CNS): 236 nM
- TGI (SF-295 CNS): 3240 nM
- GI50 (U251 CNS): 394 nM
- TGI (U251 CNS): 15400 nM
- GI50 (HCT-116 colon): 645 nM
- TGI (HCT-116 colon): 29200 nM
- GI50 (MALME-3M melanoma): 323 nM
- TGI (MALME-3M melanoma): 18800 nM
- GI50 (LOX IMVI melanoma): 478 nM
- TGI (LOX IMVI melanoma): 7430 nM
- GI50 (HL-60(TB) leukemia): 274 nM
- TGI (HL-60(TB) leukemia): 17800 nM
- GI50 (NCI-H460 lung): 443 nM
- TGI (NCI-H460 lung): 13600 nM
- GI50 (T-47D breast): 325 nM
- TGI (T-47D breast): > 100000 nM
- GI50 (786-0 renal): 768 nM
- TGI (786-0 renal): 11300 nM
- GI50 (ACHN renal): 564 nM
- TGI (ACHN renal): 30600 nM
- GI50 (SK-MEL-5 melanoma): 353 nM
- TGI (SK-MEL-5 melanoma): 15000 nM
- GI50 (HS 578T breast): 333 nM
- TGI (HS 578T breast): 9170 nM
- GI50 (SK-MEL-28 melanoma): 639 nM
- TGI (SK-MEL-28 melanoma): 31800 nM
- GI50 (NCI-H226 lung): 1450 nM
- TGI (NCI-H226 lung): > 100000 nM
- GI50 (MDA-MB-468 breast): 300 nM
- TGI (MDA-MB-468 breast): 1030 nM
- GI50 (CAKI-1 renal): 483 nM
- TGI (CAKI-1 renal): 38900 nM
- GI50 (A549 NSCLC): 868 nM
- TGI (A549 NSCLC): > 100000 nM
- GI50 (UACC-62 melanoma): 277 nM
- TGI (UACC-62 melanoma): 12200 nM
- GI50 (RXF 393 renal): 375 nM
- TGI (RXF 393 renal): 7440 nM
- GI50 (SR leukemia): 141 nM
- TGI (SR leukemia): > 100000 nM
- GI50 (K-562 leukemia): 80.1 nM
- TGI (K-562 leukemia): > 100000 nM
- GI50 (OVCAR-8 ovarian): 463 nM
- TGI (OVCAR-8 ovarian): 9100 nM
- GI50 (SN12C renal): 522 nM
- TGI (SN12C renal): 16500 nM
- GI50 (TK-10 renal): 4030 nM
- TGI (TK-10 renal): > 100000 nM
- GI50 (UO-31 renal): 530 nM
- TGI (UO-31 renal): 57000 nM
- GI50 (M14 melanoma): 324 nM
- TGI (M14 melanoma): 16000 nM
- GI50 (HOP-92 NSCLC): 8530 nM
- TGI (HOP-92 NSCLC): 43600 nM
- GI50 (HT29 colon): 326 nM
- TGI (HT29 colon): 2780 nM
- GI50 (SNB-75 CNS): 255 nM
- TGI (SNB-75 CNS): 968 nM
- GI50 (PC-3 prostate): 583 nM
- TGI (PC-3 prostate): > 100000 nM
- GI50 (IGROV1 ovarian): 569 nM
- TGI (IGROV1 ovarian): 20400 nM
- GI50 (NCI/ADR-RES ovarian): 109 nM
- TGI (NCI/ADR-RES ovarian): 484 nM
- GI50 (HCT-15 colon): 170 nM
- TGI (HCT-15 colon): 16700 nM
- GI50 (MDA-MB-435): 46 nM
- TGI (MDA-MB-435): 250 nM
